Read-outs that look alike come from different tables or passages of the source. Values belong to the compound of their own block, whether it stands above or below them. Where a SMILES comes first, the peptide text is derived from it. Bridges are numbered along the chain shown (N, C = ends). [ ]: non-standard residue; d: D form. PEG12 = NCCOCCOCCOCCOCCOCCOCCOCCOCCOCCOCCOCCOCCC(=O)O; NMePhe(3-Cl) = CN[C@@H](Cc1cccc(Cl)c1)C(=O)O; NMeW = CN[C@@H](Cc1c[nH]c2ccccc12)C(=O)O; NMeY = CN[C@@H](Cc1ccc(O)cc1)C(=O)O; NMeF = CN[C@@H](Cc1ccccc1)C(=O)O; PEG4 = NCCOCCOCCOCCOCCC(=O)O; Dap = NC[C@H](N)C(=O)O; Aib = CC(C)(N)C(=O)O
Target: transferrin receptor (hTfR) (Homo sapiens, UniProt P02786)
Test: Intermolecular interaction evaluation test between transferrin receptor (hTfR) and peptide by surface plasmon resonance (SPR)
Type: binding
Outline: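 hTfR captured on Ni-NTA chip then amine-coupled; peptides run single-cycle kinetics at 5–100 nM in 10 mM HEPES pH 8.0, 150 mM NaCl, 0.05% Tween 20, 0.1% BSA, 1.0% DMSO. KD from least-squares curve fitting of sensorgrams.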

[1] = SPR, hTfR No. 894 variants with PEG12c linker (Table 2), read-out: KD
[2] = surface plasmon resonance, peptide vs hTfR, read-out: KD value for hTfR by SPR (class symbol)
[3] = surface plasmon resonance, hTfR, read-out: KD value for hTfR by SPR (class symbol)
[4] = hTfR binding by SPR, hTfR No. 894 variant peptides, linker-added peptides and payload conjugates (Table 2), read-out: KD value obtained from the SPR measurement
[5] = SPR, hTfR, class symbols A-D, read-out: KD
[6] = surface plasmon resonance, peptide vs hTfR, read-out: KD value, hTfR binding by SPR (class symbol)

Sequence of transferrin receptor (hTfR) (P02786 whole entry): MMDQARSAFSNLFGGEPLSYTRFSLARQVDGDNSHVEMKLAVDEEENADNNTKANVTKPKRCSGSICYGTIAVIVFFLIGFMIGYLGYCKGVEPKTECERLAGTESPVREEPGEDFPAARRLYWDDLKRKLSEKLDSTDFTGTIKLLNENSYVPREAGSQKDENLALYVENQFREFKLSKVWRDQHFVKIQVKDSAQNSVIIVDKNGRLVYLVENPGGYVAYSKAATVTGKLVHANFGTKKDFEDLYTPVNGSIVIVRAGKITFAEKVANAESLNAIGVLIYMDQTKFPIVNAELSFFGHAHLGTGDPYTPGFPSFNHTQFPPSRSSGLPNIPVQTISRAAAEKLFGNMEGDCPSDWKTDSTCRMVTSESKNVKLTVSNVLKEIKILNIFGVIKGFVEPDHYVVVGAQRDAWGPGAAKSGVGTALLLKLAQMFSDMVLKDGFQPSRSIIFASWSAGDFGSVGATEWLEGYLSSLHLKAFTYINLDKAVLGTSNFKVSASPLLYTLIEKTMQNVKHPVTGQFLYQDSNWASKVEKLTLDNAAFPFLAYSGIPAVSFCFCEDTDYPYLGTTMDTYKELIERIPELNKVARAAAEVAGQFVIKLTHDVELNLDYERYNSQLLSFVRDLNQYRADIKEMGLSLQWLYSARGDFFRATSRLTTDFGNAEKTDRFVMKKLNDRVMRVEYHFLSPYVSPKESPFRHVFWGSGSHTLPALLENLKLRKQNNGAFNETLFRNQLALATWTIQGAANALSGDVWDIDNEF

Kd [1]: 1 to 100 nM
SMILES: CC[C@H](C)[C@@H]1NC(=O)[C@H](Cc2ccc(O)cc2)NC(=O)[C@H](Cc2ccc(O)cc2)NC(=O)[C@H](CC(N)=O)NC(=O)[C@H](Cc2c[nH]c3ccccc23)NC(=O)[C@H](C(C)C)NC(=O)[C@H](Cc2ccccc2)N(C)C(=O)[C@H](C(C)C)NC(=O)[C@H](C)NC(=O)CSC[C@@H](C(=O)NCCOCCOCCOCCOCCOCCOCCOCCOCCOCCOCCOCCOCCC(N)=O)NC(=O)[C@H](C)NC(=O)[C@H](Cc2ccc(O)cc2)NC(=O)[C@H](CCCNC(=N)N)NC(=O)[C@H](CCCNC(=N)N)NC(=O)[C@H]([C@@H](C)CC)NC1=O [compound 117] ({CH2CO}-AV[NMeF]VWNYYIIRRYAC[PEG12]-NH2; thioether N-15)

Kd [2]: 1 to 100 nM
SMILES: CC[C@H](C)[C@@H]1NC(=O)[C@H](Cc2ccc(O)cc2)NC(=O)[C@H](Cc2ccc(O)cc2)NC(=O)[C@H](CC(N)=O)NC(=O)[C@H](Cc2c[nH]c3ccccc23)N(C)C(=O)[C@H](C(C)C)NC(=O)[C@H](Cc2cccc(Cl)c2)N(C)C(=O)[C@@H]2CCC(=O)NCCCCC[C@H](NC(=O)[C@H]([C@@H](C)CC)NC1=O)C(=O)N[C@@H](CCCNC(=N)N)C(=O)N[C@@H](Cc1ccc(O)cc1)C(=O)N(C)[C@@H](Cc1ccc(O)cc1)C(=O)N[C@H](C(N)=O)CSCC(=O)N[C@@H](C)C(=O)N2 [compound 411]

Kd [3]: 1 to 100 nM
SMILES: CC[C@H](C)[C@@H]1NC(=O)[C@H](Cc2ccc(OC)cc2)NC(=O)[C@H](Cc2ccc(O)cc2)NC(=O)[C@H](CC(N)=O)NC(=O)[C@H](Cc2c[nH]c3ccccc23)N(C)C(=O)[C@H](C(C)C)NC(=O)[C@H](Cc2cccc(Cl)c2)N(C)C(=O)[C@H](C(C)C)NC(=O)[C@H](C)NC(=O)CSC[C@@H](C(=O)NCC(=O)N[C@H](CCC(=O)O)C(=O)NCC(=O)N[C@H](CCC(=O)O)C(=O)N[C@@H](CO)C(=O)N[C@@H](CO)C(=O)N[C@@H](CS)C(N)=O)NC(=O)[C@H](Cc2ccc(O)cc2)N(C)C(=O)[C@H](Cc2ccccc2)NC(=O)[C@@H](CCCNC(=N)N)NC(=O)[C@H](CCCNC(=N)N)NC(=O)[C@H]([C@@H](C)CC)NC1=O [compound 403]

Kd [5]: 1 to 100 nM
SMILES: CC[C@H](C)[C@@H]1NC(=O)[C@H](Cc2ccc(OC)cc2)NC(=O)[C@H](Cc2ccc(O)cc2)NC(=O)[C@H](CC(N)=O)NC(=O)[C@H](Cc2c[nH]c3ccccc23)N(C)C(=O)[C@H](C(C)C)NC(=O)[C@H](Cc2cccc(Cl)c2)N(C)C(=O)[C@H](C(C)C)NC(=O)[C@H](C)NC(=O)CSC[C@@H](C(N)=O)NC(=O)[C@H](Cc2ccc(O)cc2)N(C)C(=O)[C@H](Cc2cccnc2)NC(=O)[C@@H](CCCNC(=N)N)NC(=O)[C@H](CCCNC(=N)N)NC(=O)[C@H]([C@@H](C)CC)NC1=O [compound 460]

Kd [4]: 1 to 100 nM
SMILES: CC[C@H](C)[C@@H]1NC(=O)[C@H](Cc2ccc(O)cc2)NC(=O)[C@H](Cc2ccc(O)cc2)NC(=O)[C@H](CC(N)=O)NC(=O)[C@H](Cc2c[nH]c3ccccc23)NC(=O)[C@H](C(C)C)NC(=O)[C@H](Cc2ccccc2)N(C)C(=O)[C@H](C(C)C)NC(=O)[C@H](C)NC(=O)CSC[C@@H](C(=O)NCC(=O)NCC(=O)N[C@@H](CO)C(=O)NCC(=O)N[C@@H](CO)C(=O)N[C@@H](CO)C(=O)NCC(=O)N[C@@H](CO)C(=O)N[C@@H](CO)C(=O)N[C@@H](CCCCNC(=O)C2CCC(CN3C(=O)C=CC3=O)CC2)C(N)=O)NC(=O)[C@H](Cc2ccc(O)cc2)N(C)C(=O)[C@H](Cc2ccc(O)cc2)NC(=O)[C@H](CCCNC(=N)N)NC(=O)[C@H](CCCNC(=N)N)NC(=O)[C@H]([C@@H](C)CC)NC1=O (stereo partly drawn) [compound 189]

Kd [6]: 1 to 100 nM
SMILES: CC[C@H](C)[C@@H]1NC(=O)[C@H](Cc2ccc(OC)cc2)NC(=O)[C@H](Cc2ccc(O)cc2)NC(=O)[C@H](CC(N)=O)NC(=O)[C@H](Cc2c[nH]c3ccccc23)N(C)C(=O)[C@H](C(C)C)NC(=O)[C@H](Cc2cccc(Cl)c2)N(C)C(=O)[C@H](C(C)C)NC(=O)[C@H](C)NC(=O)CSC[C@@H](C(=O)NCCOCCOCCOCCOCCC(N)=O)NC(=O)[C@H](Cc2ccc(O)cc2)N(C)C(=O)[C@H](Cc2ccccc2)NC(=O)[C@@H](CCCNC(=N)N)NC(=O)[C@H](CCCNC(=N)N)NC(=O)[C@H](CN)NC1=O [compound 336] ({CH2CO}-AV[NMePhe(3-Cl)]V[NMeW]NYY(Me)I[Dap]R[dR]F[NMeY]C[PEG4]-NH2; thioether N-15)

Kd [1]: 100 to 1000 nM
SMILES: CC[C@H](C)[C@@H]1NC(=O)[C@H](Cc2ccc(O)cc2)NC(=O)[C@H](Cc2ccc(O)cc2)NC(=O)[C@H](CC(N)=O)NC(=O)[C@H](Cc2c[nH]c3ccccc23)NC(=O)[C@H](C(C)C)NC(=O)[C@H](Cc2ccccc2)N(C)C(=O)[C@H](C(C)C)NC(=O)[C@H](C)NC(=O)CSC[C@@H](C(=O)NCCOCCOCCOCCOCCOCCOCCOCCOCCOCCOCCOCCOCCC(N)=O)NC(=O)[C@H](CCC(=O)O)NC(=O)[C@H](Cc2ccc(O)cc2)NC(=O)[C@H](CCCNC(=N)N)NC(=O)[C@H](CCCNC(=N)N)NC(=O)[C@H]([C@@H](C)CC)NC1=O [compound 124]

The next lines start with the compound.

SMILES: CC[C@H](C)[C@@H]1NC(=O)[C@H](Cc2ccc(O)cc2)NC(=O)[C@H](Cc2ccc(O)cc2)NC(=O)[C@H](CC(N)=O)NC(=O)[C@H](Cc2c[nH]c3ccccc23)NC(=O)[C@H](C(C)C)NC(=O)[C@H](Cc2ccccc2)N(C)C(=O)[C@H](C(C)C)NC(=O)[C@H](C)NC(=O)CSC[C@@H](C(=O)NCC(=O)N[C@H](CCC(=O)O)C(=O)N[C@H](CCC(=O)O)C(=O)N[C@H](CCC(=O)O)C(=O)N[C@@H](CO)C(=O)N[C@@H](CO)C(=O)N[C@@H](CSCC(=O)NC)C(N)=O)NC(=O)[C@H](Cc2ccc(O)cc2)N(C)C(=O)[C@H](Cc2ccc(O)cc2)NC(=O)[C@H](CCCNC(=N)N)NC(=O)[C@H](CCCNC(=N)N)NC(=O)[C@H]([C@@H](C)CC)NC1=O [compound 424]
Kd [2]: 1 to 100 nM

SMILES: CC[C@H](C)[C@@H]1NC(=O)[C@H](Cc2ccc(OC)cc2)NC(=O)[C@H](Cc2ccc(O)cc2)NC(=O)[C@H](CC(N)=O)NC(=O)[C@H](Cc2c[nH]c3ccccc23)N(C)C(=O)[C@H](C(C)C)NC(=O)[C@H](Cc2cccc(Cl)c2)N(C)C(=O)[C@H](C(C)C)NC(=O)[C@H](C)NC(=O)CSC[C@@H](C(N)=O)NC(=O)[C@H](Cc2ccc(O)cc2)N(C)C(=O)[C@H](Cc2cccc(Cl)c2)NC(=O)[C@@H](CCCNC(=N)N)NC(=O)[C@H](CCCNC(=N)N)NC(=O)[C@H]([C@@H](C)CC)NC1=O [compound 393]
Kd [3]: 1 to 100 nM

SMILES: CC[C@H](C)[C@@H]1NC(=O)[C@H](Cc2ccc(O)cc2)NC(=O)[C@H](Cc2ccc(O)cc2)NC(=O)[C@H](CC(N)=O)NC(=O)[C@H](Cc2c[nH]c3ccccc23)N(C)C(=O)[C@H](C(C)C)NC(=O)[C@H](Cc2ccccc2)N(C)C(=O)[C@H](C(C)C)NC(=O)[C@H](C)NC(=O)CSC[C@@H](C(=O)NCCOCCOCCOCCOCCC(=O)N[C@@H](CCCCNC(=O)C2CCC(CN3C(=O)C=CC3=O)CC2)C(N)=O)NC(=O)[C@H](Cc2ccc(O)cc2)N(C)C(=O)[C@H](Cc2ccc(O)cc2)NC(=O)[C@H](CCCNC(=N)N)NC(=O)[C@H](CCCNC(=N)N)NC(=O)[C@H]([C@@H](C)CC)NC1=O (stereo partly drawn) [compound 184]
Kd [4]: 1 to 100 nM

SMILES: CC[C@H](C)[C@@H]1NC(=O)[C@H](Cc2ccc(OC)cc2)NC(=O)[C@H](Cc2ccc(O)cc2)NC(=O)[C@H](CC(N)=O)NC(=O)[C@H](Cc2c[nH]c3ccccc23)N(C)C(=O)[C@H](C(C)C)NC(=O)[C@H](Cc2cccc(Cl)c2)N(C)C(=O)[C@H](C(C)C)NC(=O)[C@H](C)NC(=O)CSC[C@@H](C(N)=O)NC(=O)[C@H](Cc2ccc(O)cc2)N(C)C(=O)[C@H](Cc2ccccc2)NC(=O)[C@@H](CCCNC(=N)N)NC(=O)C(C)(C)NC(=O)[C@H]([C@@H](C)CC)NC1=O [compound 353]
Kd [3]: 1 to 100 nM

SMILES: CC[C@H](C)[C@@H]1NC(=O)[C@H](Cc2ccc(OCC(=O)O)cc2)NC(=O)[C@H](Cc2ccc(O)cc2)NC(=O)[C@H](CC(N)=O)NC(=O)[C@H](Cc2c[nH]c3ccccc23)N(C)C(=O)[C@H](C(C)C)NC(=O)[C@H](Cc2cccc(Cl)c2)N(C)C(=O)[C@H](C(C)C)NC(=O)[C@H](C)NC(=O)CSC[C@@H](C(N)=O)NC(=O)[C@H](Cc2ccc(O)cc2)N(C)C(=O)[C@H](Cc2ccccc2)NC(=O)[C@@H](CCCNC(=N)N)NC(=O)[C@H](CCCNC(=N)N)NC(=O)[C@H]([C@@H](C)CC)NC1=O [compound 320]
Kd [6]: 1 to 100 nM

SMILES: CC[C@H](C)[C@@H]1NC(=O)[C@H](Cc2ccc(O)cc2)NC(=O)[C@H](Cc2ccc(O)cc2)NC(=O)[C@H](CC(N)=O)NC(=O)[C@H](Cc2cn(CC(=O)O)c3ccccc23)NC(=O)[C@H](C(C)C)NC(=O)[C@H](Cc2ccccc2)N(C)C(=O)[C@H](C(C)C)NC(=O)[C@H](C)NC(=O)CSC[C@@H](C(N)=O)NC(=O)[C@H](Cc2ccc(O)cc2)N(C)C(=O)[C@H](Cc2ccc(O)cc2)NC(=O)[C@H](CCCNC(=N)N)NC(=O)C(C)(C)NC(=O)[C@H]([C@@H](C)CC)NC1=O [compound 469]
Kd [5]: 1 to 100 nM

SMILES: CC[C@H](C)[C@@H]1NC(=O)[C@H](Cc2ccc(OC)cc2)NC(=O)[C@H](Cc2ccc(O)cc2)NC(=O)[C@H](CC(N)=O)NC(=O)[C@H](Cc2c[nH]c3ccccc23)N(C)C(=O)[C@H](C(C)C)NC(=O)[C@H](Cc2ccccc2)N(C)C(=O)[C@H](C(C)C)NC(=O)[C@H](C)NC(=O)CSC[C@@H](C(=O)NCCOCCOCCOCCOCCC(N)=O)NC(=O)[C@H](Cc2ccc(O)cc2)N(C)C(=O)[C@H](Cc2ccccc2)NC(=O)[C@@H](CCCNC(=N)N)NC(=O)C(C)(C)NC(=O)[C@H]([C@@H](C)CC)NC1=O [compound 301] ({CH2CO}-AV[NMeF]V[NMeW]NYY(Me)II[Aib][dR]F[NMeY]C[PEG4]-NH2; thioether N-15)
Kd [6]: 1 to 100 nM

SMILES: CC[C@H](C)[C@@H]1NC(=O)[C@H](Cc2ccc(OC)cc2)NC(=O)[C@H](Cc2ccc(O)cc2)NC(=O)[C@H](CC(N)=O)NC(=O)[C@H](Cc2cn(CC(=O)O)c3ccccc23)NC(=O)[C@H](C(C)C)NC(=O)[C@H](Cc2cccc(Cl)c2)N(C)C(=O)[C@H](C(C)C)NC(=O)[C@H](C)NC(=O)CSC[C@@H](C(N)=O)NC(=O)[C@H](Cc2ccc(O)cc2)N(C)C(=O)[C@H](Cc2ccccc2)NC(=O)[C@@H](CCCNC(=N)N)NC(=O)[C@H](CCCNC(=N)N)NC(=O)[C@H]([C@@H](C)CC)NC1=O [compound 306]
Kd [6]: 1 to 100 nM
